According to PubChem BioAssay AID1259407 (Chemical Carcinogenesis Research Information System (CCRIS), 2018):
Calls of active or inactive are those of the source. The rule behind the calls is not given here.

Tested on: CCRIS mutagenicity, Ames/micronucleus/aberration tests
Assay: CCRIS mutagenicity studies
[1] = Test System: AMES SALMONELLA TYPHIMURIUM, Strain/Indicator: TA98, Metabolic Activation: NONE, Method: STANDARD PLATE
[2] = Test System: AMES SALMONELLA TYPHIMURIUM, Strain/Indicator: TA100, Metabolic Activation: NONE, Method: STANDARD PLATE
[3] = Test System: AMES SALMONELLA TYPHIMURIUM, Strain/Indicator: TA1535, Metabolic Activation: NONE, Method: STANDARD PLATE
[4] = Test System: AMES SALMONELLA TYPHIMURIUM, Strain/Indicator: TA1537, Metabolic Activation: NONE, Method: STANDARD PLATE
[5] = Test System: AMES SALMONELLA TYPHIMURIUM, Strain/Indicator: TA1538, Metabolic Activation: NONE, Method: STANDARD PLATE
[6] = Test System: AMES SALMONELLA TYPHIMURIUM, Strain/Indicator: TA98, Metabolic Activation: NONE, Method: PREINCUBATION
[7] = Test System: AMES SALMONELLA TYPHIMURIUM, Strain/Indicator: TA100, Metabolic Activation: NONE, Method: PREINCUBATION
[8] = Test System: AMES SALMONELLA TYPHIMURIUM, Strain/Indicator: TA98, Metabolic Activation: RAT, LIVER, S-9, AROCLOR 1254, Method: STANDARD PLATE
[9] = Test System: AMES SALMONELLA TYPHIMURIUM, Strain/Indicator: TA100, Metabolic Activation: RAT, LIVER, S-9, AROCLOR 1254, Method: STANDARD PLATE
[10] = Test System: MOUSE LYMPHOMA, Strain/Indicator: L5178Y (TK+/TK-), Metabolic Activation: NONE, Method: SUSPENSION/PLATE
[11] = Test System: MOUSE LYMPHOMA, Strain/Indicator: L5178Y (TK+/TK-), Metabolic Activation: RAT, LIVER, S-9, AROCLOR 1254, Method: SUSPENSION/PLATE

Compound: CN(C)CCCNc1c2ccccc2nc2cccc([N+](=O)[O-])c12
- mutagenic call (Test System: AMES SALMONELLA TYPHIMURIUM, Strain/Indicator: TA98(1,8-DNP6), Metabolic Activation: NONE, Method: STANDARD PLATE): active; positive
- mutagenic call (Test System: AMES SALMONELLA TYPHIMURIUM, Strain/Indicator: TA98(1,8-DNP6), Metabolic Activation: RAT, LIVER, S-9, Method: STANDARD PLATE): active; positive
- mutagenic call (Test System: AMES SALMONELLA TYPHIMURIUM, Strain/Indicator: TA98(NR), Metabolic Activation: NONE, Method: STANDARD PLATE): active; positive
- mutagenic call (Test System: AMES SALMONELLA TYPHIMURIUM, Strain/Indicator: TA98(NR), Metabolic Activation: RAT, LIVER, S-9, Method: STANDARD PLATE): active; positive
- mutagenic call [1]: active; positive
- mutagenic call (Test System: AMES SALMONELLA TYPHIMURIUM, Strain/Indicator: TA98, Metabolic Activation: RAT, LIVER, S-9, Method: STANDARD PLATE): active; positive
- mutagenic call [2]: active; positive
- mutagenic call [3]: inactive; negative
- mutagenic call [4]: active; positive
- mutagenic call (Test System: AMES SALMONELLA TYPHIMURIUM, Strain/Indicator: TA1537 PKM101, Metabolic Activation: NONE, Method: STANDARD PLATE): active; positive
- mutagenic call [5]: active; positive
- mutagenic call (Test System: CHINESE HAMSTER V-79, Strain/Indicator: V-79/6-THIOGUANINE, Metabolic Activation: NONE, Method: STANDARD PLATE): active; positive
- mutagenic call (Test System: CHINESE HAMSTER V-79, Strain/Indicator: V-79/OUABAIN, Metabolic Activation: NONE, Method: STANDARD PLATE): active; positive
- mutagenic call (Test System: Escherichia coli, Strain/Indicator: CC107 (G6 to G7 frameshifts), Metabolic Activation: None, Method: Modified preincubation): active; positive
- mutagenic call (Test System: Escherichia coli, Strain/Indicator: CC108 (G6 to G5 frameshifts), Metabolic Activation: None): active; positive
- mutagenic call (Test System: Escherichia coli, Strain/Indicator: CC109 (CG5 to CG4 frameshifts), Metabolic Activation: None, Method: Modified preincubation): active; positive
- mutagenic call (Test System: Escherichia coli, Strain/Indicator: CC111 (A7 to A6 frameshifts), Metabolic Activation: None, Method: Modified preincubation): inactive; negative

Compound: Cc1ccc(C)c([N+](=O)[O-])c1
- mutagenic call [6]: inactive; negative
- mutagenic call (Test System: AMES SALMONELLA TYPHIMURIUM, Strain/Indicator: TA98, Metabolic Activation: RAT, LIVER, S-9, KANECHLOR 500, Method: PREINCUBATION): inactive; negative
- mutagenic call [7]: inactive; negative
- mutagenic call (Test System: AMES SALMONELLA TYPHIMURIUM, Strain/Indicator: TA100, Metabolic Activation: RAT, LIVER, S-9, KANECHLOR 500, Method: PREINCUBATION): active; positive

Compound: C=Cc1ccc(N)cc1
- mutagenic call (Test System: AMES SALMONELLA TYPHIMURIUM, Strain/Indicator: TA98, Metabolic Activation: HAMSTER, LIVER, S-9, AROCLOR 1254, Method: STANDARD PLATE): active; positive
- mutagenic call [1]: inactive; negative
- mutagenic call [8]: inactive; negative
- mutagenic call (Test System: AMES SALMONELLA TYPHIMURIUM, Strain/Indicator: TA100, Metabolic Activation: HAMSTER, LIVER, S-9, AROCLOR 1254, Method: STANDARD PLATE): active; positive
- mutagenic call [2]: inactive; negative
- mutagenic call [9]: inactive; negative
- mutagenic call [10]: inactive; positive. reevaluation of results: negative
- mutagenic call [11]: inactive; positive. reevaluation of results: negative

Compound: CC(=O)Nc1snc2ccc(Cl)cc12
- mutagenic call [1]: inactive; negative
- mutagenic call (Test System: AMES SALMONELLA TYPHIMURIUM, Strain/Indicator: TA98, Metabolic Activation: S-9, Method: STANDARD PLATE): inactive; negative
- mutagenic call [2]: inactive; negative
- mutagenic call (Test System: AMES SALMONELLA TYPHIMURIUM, Strain/Indicator: TA100, Metabolic Activation: S-9, Method: STANDARD PLATE): active; positive
- mutagenic call [3]: inactive; negative
- mutagenic call (Test System: AMES SALMONELLA TYPHIMURIUM, Strain/Indicator: TA1535, Metabolic Activation: S-9, Method: STANDARD PLATE): inactive; negative
- mutagenic call [4]: inactive; negative
- mutagenic call (Test System: AMES SALMONELLA TYPHIMURIUM, Strain/Indicator: TA1537, Metabolic Activation: S-9, Method: STANDARD PLATE): active; positive

Compound: CCCCC[N+](=O)[O-]
- mutagenic call [6]: inactive; negative
- mutagenic call (Test System: AMES SALMONELLA TYPHIMURIUM, Strain/Indicator: TA98, Metabolic Activation: RAT, LIVER, S-9, AROCLOR, Method: PREINCUBATION): inactive; negative
- mutagenic call [7]: inactive; negative
- mutagenic call (Test System: AMES SALMONELLA TYPHIMURIUM, Strain/Indicator: TA100, Metabolic Activation: RAT, LIVER, S-9, AROCLOR, Method: PREINCUBATION): inactive; negative
- mutagenic call (Test System: AMES SALMONELLA TYPHIMURIUM, Strain/Indicator: TA102, Metabolic Activation: NONE, Method: PREINCUBATION): inactive; negative
- mutagenic call (Test System: AMES SALMONELLA TYPHIMURIUM, Strain/Indicator: TA102, Metabolic Activation: RAT, LIVER, S-9, AROCLOR, Method: PREINCUBATION): inactive; negative
- mutagenic call (Test System: UDS RAT HEPATOCYTES, Strain/Indicator: THY INCORP, Metabolic Activation: NONE): inactive; negative

Compound: ClC[C@@]1(C(Cl)Cl)C2[C@@H](Cl)[C@H](Cl)C1(C(Cl)Cl)[C@@H](Cl)[C@@H]2Cl
- mutagenic call [7]: inactive; negative

Compound: Cc1ccc2ccc3c4ccccc4ccc3c2c1
- mutagenic call (Test System: AMES SALMONELLA TYPHIMURIUM, Strain/Indicator: TA100, Metabolic Activation: RAT, LIVER, MICROSOMES, 3-METHYLCHRYSENE, Method: STANDARD PLATE): inactive; negative
- mutagenic call (Test System: AMES SALMONELLA TYPHIMURIUM, Strain/Indicator: TA100, Metabolic Activation: RAT, LIVER, MICROSOMES, AROCLOR 1254, Method: STANDARD PLATE): active; positive
- mutagenic call (Test System: AMES SALMONELLA TYPHIMURIUM, Strain/Indicator: TA100, Metabolic Activation: RAT, LIVER, MICROSOMES, Method: STANDARD PLATE): inactive; negative

Compound: CCOCCc1c(-c2ccccc2)nc(N)n2ncnc12
- mutagenic call [1]: inactive; negative
- mutagenic call [8]: inactive; negative
- mutagenic call [2]: inactive; negative
- mutagenic call [9]: inactive; negative
- mutagenic call [3]: inactive; negative
- mutagenic call (Test System: AMES SALMONELLA TYPHIMURIUM, Strain/Indicator: TA1535, Metabolic Activation: RAT, LIVER, S-9, AROCLOR 1254, Method: STANDARD PLATE): inactive; negative
- mutagenic call [4]: inactive; negative
- mutagenic call (Test System: AMES SALMONELLA TYPHIMURIUM, Strain/Indicator: TA1537, Metabolic Activation: RAT, LIVER, S-9, AROCLOR 1254, Method: STANDARD PLATE): inactive; negative
- mutagenic call [5]: inactive; negative
- mutagenic call (Test System: AMES SALMONELLA TYPHIMURIUM, Strain/Indicator: TA1538, Metabolic Activation: RAT, LIVER, S-9, AROCLOR 1254, Method: STANDARD PLATE): inactive; negative
- mutagenic call (Test System: CHINESE HAMSTER OVARY, Strain/Indicator: CHO-K1-BH4 (HGPRT)/6-THIOGUANINE, Metabolic Activation: NONE): inactive; negative
- mutagenic call (Test System: CHINESE HAMSTER OVARY, Strain/Indicator: CHO-K1-BH4 (HGPRT)/6-THIOGUANINE, Metabolic Activation: RAT, LIVER, S-9, AROCLOR 1254): inactive; negative
- mutagenic call [10]: inactive; negative
- mutagenic call [11]: inactive; negative
- mutagenic call (Test System: UDS RAT PRIMARY HEPATOCYTES, Strain/Indicator: THY INCORP, Metabolic Activation: NONE, Method: AUTORADIOGRAPHY): inactive; negative
